The test system of one data set is Cryptosporidium parvum. Put plainly: qRT-PCR assay of the growth of C. parvum in vitro in HCT-8 host cells (primary and secondary screening, EC50). Type of data set: cell-based. The following applies: Cryptosporidium parvum, HCT-8.
Another data set in a line: in vitro. The following applies: for cytotoxicity at 41 h, 10 µM: human.
Setting [1] is: primary screening at 10 uM, read-out: Inhibition (%).
The mark [2] stands for this setting: primary screening at 10 uM, treated vs control.

SMILES strings stand for the structures. Counter-ions that a name gives are not always drawn. Like-named read-outs stand apart in the source and are kept apart here.

As to `COc1cc(O)c(C(C)=O)c(OC)c1` [XANTHOXYLIN], the “Hs18S ΔCT” value in the data set on HCT-8 host cells (Hs18S) (human, 41 h, 10 μM) came to 0.08. Further, the inhibition (in general, the relative decrease from the control value, in per cent) at 10 µM in the data set with Cryptosporidium parvum (setting [1]) is -20.7%. In addition, the cytotoxicity at 41 h, 10 µM in “in vitro” turned out to be 5.4%.

For the compound `CC1(C)C=Cc2cc3ccc(=O)oc3cc2O1` [XANTHYLETIN], the “Hs18S ΔCT” value in the data set with HCT-8 host cells (Hs18S) (setting [2]) stood at 0.12. The inhibition at 10 µM with Cryptosporidium parvum (setting [1]) came out at 1.74%. In the data set “in vitro”, the cytotoxicity at 10 µM turned out to be 8.1%.

Regarding `COC(=O)CC1C(C)(C)C(OC(C)=O)[C@@H]2[C@@H](OC(C)=O)[C@]34O[C@@]2(O)[C@]1(C)C3CC[C@]1(C)C4=CC(=O)O[C@H]1c1ccoc1` (stereo partly shown) [XYLOCARPUS A], in the data set on HCT-8 host cells (Hs18S) (human, 41 h, 10 μM), the “Hs18S ΔCT” value is given as -0.48. Besides, the inhibition at 10 µM in the data set on Cryptosporidium parvum (setting [1]) was -11.9%. Moreover, the cytotoxicity at 41 h, 10 µM in the data set “in vitro” was -39.2%.

For the compound `O=C(O)c1cc(O)c2cccc(O)c2n1` [X[…]], in the data set on HCT-8 host cells (Hs18S) (setting [2]), the “Hs18S ΔCT” value is -0.32. In addition, the inhibition at 10 µM in the data set with Cryptosporidium parvum came to 20.3%. In the data set “in vitro”, the cytotoxicity at 10 µM was -24.4%.

Regarding `COC(=O)[C@@H]1[C@H]2C[C@H]3c4[nH]c5ccccc5c4CCN3C[C@@H]2CC[C@@H]1O` [YOHIMBINE HYDROCHLORIDE], in the data set on HCT-8 host cells (Hs18S) (human, 41 h, 10 μM), the “Hs18S ΔCT” value was -0.45. Moreover, the inhibition at 10 µM in the data set on Cryptosporidium parvum (setting [1]) worked out at 5.49%. For the same compound, the cytotoxicity at 41 h, 10 µM in the data set “in vitro” was -36.5%.

Take `COC(=O)[C@@H]1C[C@H](OC(C)=O)C(=O)[C@H]2[C@@]1(C)CC[C@H]1C(=O)O[C@H](c3ccoc3)C[C@]21C` [[…]]: the “Hs18S ΔCT” value with HCT-8 host cells (Hs18S) (setting [2]) turned out to be 0.53. Besides, the inhibition at 10 µM in the data set on Cryptosporidium parvum (setting [1]) was found to be 16.7%. For the same compound, the cytotoxicity at 10 µM in “in vitro” amounted to 30.5%.

Consider `C[N+]12CC[C@@]34c5ccccc5N5C(=O)C[C@@H]6OCC=C(C1)[C@H](C[C@@H]32)[C@@H]6[C@H]54` (stereo partly shown) [[…]], for which the “Hs18S ΔCT” value in the data set on HCT-8 host cells (Hs18S) (setting [2]) worked out at 0.58. Further, the inhibition at 10 µM in the data set on Cryptosporidium parvum (setting [1]) is -6.9%. The cytotoxicity at 10 µM in “in vitro” is 33.3%.

For the compound `Cc1c(C)c2c(c(C)c1O)CCC(C)(CCCC(C)CCCC(C)CCCC(C)C)O2` (stereo not drawn) [alpha-TOCHOPHEROL], the “Hs18S ΔCT” value in the data set with HCT-8 host cells (Hs18S) (setting [2]) was found to be 0.21. Besides, the inhibition at 10 µM in the data set on Cryptosporidium parvum (setting [1]) was -14.7%. The cytotoxicity at 10 µM in “in vitro” is 13.8%.

Consider `CC(=O)Oc1c(C)c(C)c2c(c1C)CCC(C)(CCCC(C)CCCC(C)CCCC(C)C)O2` (stereo not drawn) [alpha-TOCHOPHERYL ACETATE], for which the “Hs18S ΔCT” value in the data set on HCT-8 host cells (Hs18S) (human, 41 h, 10 μM) is reported as -0.21. In the data set on Cryptosporidium parvum (setting [1]), the inhibition at 10 µM is -13.6%. In addition, the cytotoxicity at 41 h, 10 µM in the data set “in vitro” was -15.8%.

On to `CC(=O)O[C@H]1CC[C@]2(C)[C@H]3CC=C4[C@@H]5CC(C)(C)CC[C@]5(C)CC[C@@]4(C)[C@]3(C)CC[C@H]2C1(C)C` [beta-AMYRIN ACETATE], for which the “Hs18S ΔCT” value in the data set on HCT-8 host cells (Hs18S) (human, 41 h, 10 μM) is on record as 0.01. For the same compound, the inhibition at 10 µM in the data set with Cryptosporidium parvum (setting [1]) is 11.3%. Moreover, the cytotoxicity at 41 h, 10 µM in the data set “in vitro” was determined as 0.5%.

As for `CC1(C)CC[C@]2(C)CC[C@]3(C)C(=CC[C@@H]4[C@@]5(C)CC[C@H](O)C(C)(C)[C@@H]5CC[C@]43C)[C@@H]2C1` [beta-AMYRIN], the “Hs18S ΔCT” value in the data set on HCT-8 host cells (Hs18S) (setting [2]) is reported as -0.12. For the same compound, in the data set with Cryptosporidium parvum (setting [1]), the inhibition at 10 µM is -38.2%. Besides, the cytotoxicity at 10 µM in “in vitro” was -8.3%.

As for `CC1=C(/C=C/C(C)=C/C=C/C(C)=C/C=C/C=C(C)/C=C/C=C(C)/C=C/C2=C(C)CCCC2(C)C)C(C)(C)CCC1` [beta-CAROTENE], the “Hs18S ΔCT” value with HCT-8 host cells (Hs18S) (human, 41 h, 10 μM) is reported as 0.04. In addition, the inhibition at 10 µM in the data set with Cryptosporidium parvum (setting [1]) was -34.8%. In “in vitro”, the cytotoxicity at 41 h, 10 µM amounted to 2.8%.

Turning to `CC12CCCC(O)(C1)C1CC(C)(C)C1CC2` (stereo not drawn) [beta-CARYOPHYLLENE ALCOHOL], the “Hs18S ΔCT” value with HCT-8 host cells (Hs18S) (human, 41 h, 10 μM) is given as 0.03. For the same compound, the inhibition at 10 µM with Cryptosporidium parvum (setting [1]) amounted to 24.2%. For the same compound, the cytotoxicity at 41 h, 10 µM in the data set “in vitro” came to 1.9%.

For the compound `CC[C@H](CC[C@@H](C)[C@H]1CC[C@H]2[C@@H]3CC=C4C[C@@H](O)CC[C@]4(C)[C@H]3CC[C@]12C)C(C)C` [beta-SITOSTEROL], the “Hs18S ΔCT” value in the data set with HCT-8 host cells (Hs18S) (setting [2]) is given as 0.43. The inhibition at 10 µM in the data set with Cryptosporidium parvum (setting [1]) is 91.7%. In the data set on Cryptosporidium parvum (secondary screening at 3.3 uM, read-out: % Inhibition (3.3 uM)), the inhibition at 3.3 µM was determined as 20%. In addition, the cytotoxicity at 10 µM in the data set “in vitro” is 25.8%.

`NC(C(=O)O)C(O)C(=O)O` (stereo not drawn) [d,l-threo-3-HYDROXYASPARTIC ACID]: the “Hs18S ΔCT” value in the data set with HCT-8 host cells (Hs18S) (human, 41 h, 10 μM) is on record as 0.16. Further, in the data set with Cryptosporidium parvum (setting [1]), the inhibition at 10 µM is 17.8%. For the same compound, the cytotoxicity at 41 h, 10 µM in the data set “in vitro” stood at 10.7%.

For the compound `C=C(C)[C@H]1CC=C(C)CC1` [d-LIMONENE], in the data set on HCT-8 host cells (Hs18S) (human, 41 h, 10 μM), the “Hs18S ΔCT” value was -0.21. Besides, in the data set on Cryptosporidium parvum (setting [1]), the inhibition at 10 µM was -6.54%. Also, the cytotoxicity at 41 h, 10 µM in “in vitro” is -15.7%.

Source of the values: paper PMC6736568, “Discovery of Novel Anti-cryptosporidial Activities From Natural Products by in vitro High-Throughput Phenotypic Screening” (Frontiers in Microbiology, 2019).
